{"source": "ChEMBL document CHEMBL6087462", "about": "“Cuminaldehyde Potentiates Antiproteolytic Peptide Efficacy via Parallel Pathways of Enhanced Inner Membrane-Damaging Activity and Inhibition of Bacterial Energy Metabolism” (J Med Chem, 2025)", "key": {"Salmonella typhimurium [1]": {"tested_on": "Salmonella typhimurium", "assay": "Synergistic antimicrobial activity against Salmonella typhimurium 7731 assessed as fractional inhibitory concentration index in presence of perillaldehyde by checkerboard broth microdilution assay", "format": "functional, Salmonella enterica subsp. enterica serovar Typhimurium"}, "Escherichia coli [2]": {"tested_on": "Escherichia coli", "assay": "Synergistic antimicrobial activity against Escherichia coli K88 assessed as fractional inhibitory concentration index in presence of citral by checkerboard broth microdilution assay", "format": "functional"}, "[3]": {"assay": "Synergistic antimicrobial activity against Salmonella enterica subsp. enterica serovar Pullorum 7913 assessed as fractional inhibitory concentration index in presence of carvacrol by checkerboard broth microdilution assay", "format": "functional"}, "Escherichia coli [4]": {"tested_on": "Escherichia coli", "assay": "Antimicrobial activity against Escherichia coli ATCC 25922 assessed as reduction in microbial growth by CLSI based broth microdilution method", "format": "functional"}, "Enterococcus faecalis [5]": {"tested_on": "Enterococcus faecalis", "assay": "Synergistic antimicrobial activity against Enterococcus faecalis ATCC 29212 assessed as fractional inhibitory concentration by checkerboard broth microdilution assay", "format": "functional"}, "Salmonella typhimurium [6]": {"tested_on": "Salmonella typhimurium", "assay": "Antimicrobial activity against Salmonella typhimurium ATCC 7731 assessed as reduction in microbial growth in presence of cuminaldehyde by CLSI based broth microdilution method", "format": "functional, Salmonella enterica subsp. enterica serovar Typhimurium", "conditions": "Salmonella enterica"}, "Escherichia coli [7]": {"tested_on": "Escherichia coli", "assay": "Antimicrobial activity against Escherichia coli K88 assessed as reduction in microbial growth in presence of cuminaldehyde by CLSI based broth microdilution method", "format": "functional"}, "Staphylococcus aureus": {"tested_on": "Staphylococcus aureus", "assay": "Synergistic antimicrobial activity against Staphylococcus aureus 25923 assessed as fractional inhibitory concentration index in presence of cuminaldehyde by checkerboard broth microdilution assay", "format": "functional"}, "Enterococcus faecalis [8]": {"tested_on": "Enterococcus faecalis", "assay": "Antimicrobial activity against Enterococcus faecalis ATCC 29212 assessed as reduction in microbial growth in presence of cuminaldehyde by CLSI based broth microdilution method", "format": "functional"}, "Escherichia coli [9]": {"tested_on": "Escherichia coli", "assay": "Synergistic antimicrobial activity against Escherichia coli K99 assessed as fractional inhibitory concentration by checkerboard broth microdilution assay", "format": "functional"}}}
{"smiles": "CC[C@H](C)[C@H](NC(=O)[C@@H](NC(=O)[C@@H](CCCNC(=N)N)NC(=O)[C@H](C)NC(=O)[C@H](C)NC(=O)[C@@H](N)Cc1cccc2ccccc12)[C@@H](C)CC)C(=O)N[C@@H](CC(C)C)C(=O)N[C@H](CCCNC(=N)N)C(=O)N[C@@H](Cc1c[nH]c2ccccc12)C(=O)N[C@H](CCCNC(=N)N)C(=O)N[C@@H](Cc1ccccc1)C(=O)N[C@@H](CCCNC(=N)N)C(=O)O", "values": [{"measurement": "fractional inhibitory concentration index (FICI)", "setting": "Salmonella typhimurium [1]", "value": 0.254}, {"measurement": "fractional inhibitory concentration index (FICI)", "setting": "Escherichia coli [2]", "value": 0.188}, {"measurement": "fractional inhibitory concentration index (FICI)", "setting": "[3]", "value": 0.625}, {"measurement": "MIC", "setting": "Escherichia coli [4]", "value": 4, "unit": "µg/mL"}, {"measurement": "FIC", "setting": "Enterococcus faecalis [5]", "value": 0.125}, {"measurement": "MIC", "setting": "Salmonella typhimurium [6]", "value": 0.5, "unit": "µg/mL"}, {"measurement": "MIC", "setting": "Escherichia coli [7]", "value": 2, "unit": "µg/mL"}, {"measurement": "fractional inhibitory concentration index (FICI)", "setting": "Staphylococcus aureus", "value": 0.188}, {"measurement": "MIC", "setting": "Enterococcus faecalis [8]", "value": 1, "unit": "µg/mL"}, {"measurement": "FIC", "setting": "Escherichia coli [9]", "value": 0.25}]}
